Test results as given in patent US11242350B2, “Spirocyclic ROR-gamma modulators” (Escalier Biosciences B.V., priority 2018, dated 2022).

biological target: RORγt (Homo sapiens (Human), UniProt P51449); experiment: Gal4 ligand binding assay (RORγt Gal fusion luciferase reporter assay in HEK293T cells); assay type: cell-based; conditions: RORγt inverse agonists in RORγt Gal fusion assay
How it was run: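 Stable HEK293T line expressing the receptor fused to the Gal4 DBD, with a Gal4 UAS-driven luciferase; constitutively active, so agonism and inverse agonism both register. 10-point 1:3 titrations, 60 μM to 3 nM as prepared in media (added as 2×), 0.2% final DMSO; 24 h at 37 °C. Luminescence normalised to vehicle-only wells.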

Chain of RORγt (P51449 269-508): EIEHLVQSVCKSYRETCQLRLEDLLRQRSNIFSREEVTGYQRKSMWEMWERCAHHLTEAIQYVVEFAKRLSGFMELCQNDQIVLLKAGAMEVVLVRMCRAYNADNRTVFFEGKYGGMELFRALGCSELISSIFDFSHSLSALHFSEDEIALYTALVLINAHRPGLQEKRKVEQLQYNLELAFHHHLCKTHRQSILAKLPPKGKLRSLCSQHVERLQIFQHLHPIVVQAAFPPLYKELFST

IC50 [nM]	SMILES
< 50	CCc1cc(CN2CC3(C2)CN(S(C)(=O)=O)C3)c(F)cc1-c1ccc(C(O)(C(F)(F)F)C(F)(F)F)cc1F [Example 82, 2-(2′-ethyl-2,5′-difluoro-4′-((6-(methylsulfonyl)-2,6-diazaspiro[3.3]heptan-2-yl)methyl)-[1,1′-biphenyl]-4-yl)-1,1,1,3,3,3-hexafluoropropan-2-ol]
< 50	CCc1c(F)c(CN2CC3(C2)CN(S(C)(=O)=O)C3)cc(F)c1-c1ccc(C(O)(C(F)(F)F)C(F)(F)F)cc1Cl [Example 72, 2-(2-chloro-2′-ethyl-3′,6′-difluoro-4′-((6-(methylsulfonyl)-2,6-diazaspiro[3.3]heptan-2-yl)methyl)-[1,1′-biphenyl]-4-yl)-1,1,1,3,3,3-hexafluoropropan-2-ol]
< 50	CCc1cc(CN2CC3(C2)CN(S(C)(=O)=O)C3)ccc1-c1ccc(C(O)(C(F)(F)F)C(F)(F)F)cc1CC [Example 77, 2-(2,2′-diethyl-4′-((6-(methylsulfonyl)-2,6-diazaspiro[3.3]heptan-2-yl)methyl)-[1,1′-biphenyl]-4-yl)-1,1,1,3,3,3-hexafluoropropan-2-ol]
< 50	CC(C)(C)c1cc(CN2CC3(C2)CN(S(C)(=O)=O)C3)ccc1-c1ccc(C(O)(C(F)(F)F)C(F)(F)F)cc1 [Example 23, 2-(2′-(tert-butyl)-4′-((6-(methylsulfonyl)-2,6-diazaspiro[3.3]heptan-2-yl)methyl)-[1,1′-biphenyl]-4-yl)-1,1,1,3,3,3-hexafluoropropan-2-ol]
< 50	CCc1cc(CN2CCCC3(C2)CN(S(C)(=O)=O)C3)ccc1-c1ccc(C(O)(C(F)(F)F)C(F)(F)F)cc1 [Example 5, 2-(2′-ethyl-4′-((2-(methylsulfonyl)-2,6-diazaspiro[3.5]nonan-6-yl)methyl)-[1,1′-biphenyl]-4-yl)-1,1,1,3,3,3-hexafluoropropan-2-ol]
50 to 250	CCc1cc(CN2CC3(C2)CN(S(C)(=O)=O)C3)ccc1-c1ccc(C(O)(C(F)(F)F)C(F)(F)F)cn1 [Example 63, 2-(6-(2-ethyl-4-((6-(methylsulfonyl)-2,6-diazaspiro[3.3]heptan-2-yl)methyl)phenyl)pyridin-3-yl)-1,1,1,3,3,3-hexafluoropropan-2-ol]
50 to 250	CCc1cc(CN2CC3(C2)CN(C(=O)OC)C3)ccc1-c1ccc(C(O)(C(F)(F)F)C(F)(F)F)cc1 [Example 40, methyl 6-((2-ethyl-4′-(1,1,1,3,3,3-hexafluoro-2-hydroxypropan-2-yl)-[1,1′-biphenyl]-4-yl)methyl)-2,6-diazaspiro[3.3]heptane-2-carboxylate]
< 50	CC(C)c1cc(CN2CC3(C2)CN(S(C)(=O)=O)C3)c(F)cc1-c1ccc(C(O)(C(F)(F)F)C(F)(F)F)cc1F [Example 80, 2-(2,5′-difluoro-2′-isopropyl-4′-((6-(methylsulfonyl)-2,6-diazaspiro[3.3]heptan-2-yl)methyl)-[1,1′-biphenyl]-4-yl)-1,1,1,3,3,3-hexafluoropropan-2-ol]
< 50	Cc1cc(C(O)(C(F)(F)F)C(F)(F)F)ccc1-c1c(F)cc(CN2CC3(C2)CN(S(C)(=O)=O)C3)c(F)c1C1CC1 [Example 89, 2-(2′-cyclopropyl-3′,6′-difluoro-2-methyl-4′-((6-(methylsulfonyl)-2,6-diazaspiro[3.3]heptan-2-yl)methyl)-[1,1′-biphenyl]-4-yl)-1,1,1,3,3,3-hexafluoropropan-2-ol]
< 50	CC(C)c1c(F)c(CN2CC3(C2)CN(S(C)(=O)=O)C3)cc(F)c1-c1ccc(C(O)(C(F)(F)F)C(F)(F)F)cc1 [Example 7, 2-(3′,6′-difluoro-2′-isopropyl-4′-((6-(methylsulfonyl)-2,6-diazaspiro[3.3]heptan-2-yl)methyl)-[1,1′-biphenyl]-4-yl)-1,1,1,3,3,3-hexafluoropropan-2-ol]
< 50	CCc1cc(CN2CC3(C2)CN(S(C)(=O)=O)C3)c(F)cc1-c1ccc(C(O)(C(F)(F)F)C(F)(F)F)cc1Cl [Example 83, 2-(2-chloro-2′-ethyl-5′-fluoro-4′-((6-(methylsulfonyl)-2,6-diazaspiro[3.3]heptan-2-yl)methyl)-[1,1′-biphenyl]-4-yl)-1,1,1,3,3,3-hexafluoropropan-2-ol]
